The values that follow come from patent US20130324576A1, “THERAPEUTIC COMPOUNDS” (Takeda Pharmaceutical Company Limited, priority 2012, published 2013).

T1 sequence (Q8TCW9 whole entry): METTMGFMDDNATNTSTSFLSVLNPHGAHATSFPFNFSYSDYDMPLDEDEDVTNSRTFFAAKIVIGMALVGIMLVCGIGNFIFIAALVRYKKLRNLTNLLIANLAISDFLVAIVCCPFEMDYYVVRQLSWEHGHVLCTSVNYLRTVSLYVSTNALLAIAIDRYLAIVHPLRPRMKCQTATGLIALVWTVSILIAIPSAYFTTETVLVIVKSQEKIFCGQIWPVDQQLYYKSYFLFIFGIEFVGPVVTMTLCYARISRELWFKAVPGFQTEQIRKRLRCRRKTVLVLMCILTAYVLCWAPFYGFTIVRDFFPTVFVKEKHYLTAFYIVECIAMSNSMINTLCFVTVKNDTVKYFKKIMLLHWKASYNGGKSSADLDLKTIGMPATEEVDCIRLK

This experiment has as its target T1, human PKR1 receptors (Homo sapiens, UniProt Q8TCW9).
T1 construct: expressed in transfected cells; host or cells: RBL2H3 cells (rat basophilic leukaemia line) expressing human PKR1
Nature of the experiment: PKR1 antagonist assay: block of PK1-mediated intracellular calcium release (FLIPR Tetra, Calcium 5 dye). In kind it is cell-based. As to conditions: RBL2H3 cells expressing human PKR1; 10 min pre-incubation, stimulation with PK1 at EC80; calcium fluorescence. How it is done:
Prokineticin receptor 1 (PKR1) antagonists may be functionally assessed by measurement of change in intracellular calcium levels induced by Gq mediated increase in inositol triphosphate (IP3) levels. The ability of a compound to block the intracellular release of calcium mediated by PK1 in RBL2H3 cells expressing human PKR1 receptors is determined as a measure of the compound's antagonist activity in vitro.
Approximately 10,000 cells per assay well are seeded in normal culture medium in a 384 well plate (Corning). Twenty-four hours after seeding, the cells are loaded with a calcium sensitive fluorescent dye by replacing the culture medium with assay buffer (1× Hanks buffered saline, 25 mM HEPES, 0.1% w/v fatty acid free BSA (bovine serum albumin), pH 7.4) containing 1 mM probenecid and 1× Calcium 5 Reagent (Molecular Devices). Cells are incubated at 37° C. for 1 hour to allow for dye uptake.
To test for antagonist activity, test compounds at a final concentration range between 0.32 nM-10 μM (diluted in assay buffer) are added to the assay wells and allowed to incubate for 10 minutes prior to stimulation with PK1. After incubation with test compounds the assay plate is placed in a FLIPR Tetra (Molecular Devices) and PK1 (diluted in assay buffer) is added at the determined EC80 concentration (final). Ligand-dependent changes in intracellular calcium levels are determined by measuring changes in fluorescence of the dye at […] following excitation at 485 nm.
(A change in cytosolic calcium serves as a functional read-out for many receptors and channels.)
For `CCOC(=O)C1(Cc2ccc(Br)cc2)CCN(S(=O)(=O)c2c(C)nn(C)c2C)CC1` [Example 63, Ethyl 4-(4-bromobenzyl)-1-((1,3,5-trimethyl-1H-pyrazol-4-yl)sulfonyl)piperidine-4-carboxylate], the IC50 (as a rule, the concentration needed to halve the response being measured) is 0.64 µM.

As to `COc1cc(Cl)ccc1CC1(OC)CCN(S(=O)(=O)c2c(C)nn(C)c2C)CC1` [Example 87, 4-(4-Chloro-2-methoxybenzyl)-4-methoxy-1-((1,3,5-trimethyl-1H-pyrazol-4-yl)sulfonyl)piperidine], the IC50 was found to be 5.88 µM. `Cc1nn(C)c(C)c1S(=O)(=O)N1CCC(F)(Cc2ccc(Cl)cc2F)CC1` [Example 81, 4-(4-Chloro-2-fluorobenzyl)-4-fluoro-1-((1,3,5-trimethyl-1H-pyrazol-4-yl)sulfonyl)piperidine]: the IC50 turned out to be 0.67 µM.

For `COc1cc(Cl)ccc1CC1(O)CCN(S(=O)(=O)c2c(C)nn(C)c2C)CC1` [Example 88, 4-(4-Chloro-2-methoxybenzyl)-1-((1,3,5-trimethyl-1H-pyrazol-4-yl)sulfonyl)piperidin-4-ol], the IC50 came to 0.2 µM. To `Cc1nn(C)c(C)c1S(=O)(=O)N1CCC(Nc2ccc(Cl)cc2)CC1` [Example 51, N-(4-Chlorophenyl)-1-((1,3,5-trimethyl-1H-pyrazol-4-yl)sulfonyl)piperidin-4-amine] belongs 1.5 µM; to `COc1ccc(OC2CCN(S(=O)(=O)c3c(C)nn(C)c3C)CC2)cc1` [Example 18, 4-(4-Methoxyphenoxy)-1-[(1,3,5-trimethyl-1H-pyrazol-4-yl)sulfonyl]piperidine], 7 µM; to `Cc1nn(C)c(C)c1S(=O)(=O)N1CCC(Oc2ccc(Cl)cc2F)CC1` [Example 30, 4-(4-Chloro-2-fluorophenoxy)-1-(trimethyl-1H-pyrazole-4-sulfonyl)piperidine], 0.51 µM. `Cc1cccc(C)c1OC1CCN(S(=O)(=O)c2c(C)n[nH]c2C)CC1` [Example 38, 1-(3,5-Dimethyl-1H-pyrazole-4-sulfonyl)-4-(2,6-dimethylphenoxy)piperidine]: the IC50 amounted to 3.2 µM. To `Cc1n[nH]c(C)c1S(=O)(=O)N1CCC(Oc2ccc(Cl)cc2)CC1` [Example 8, 4-(4-Chlorophenoxy)-1-[(3,5-dimethyl-1H-pyrazol-4-yl)sulfonyl]piperidine] belongs 1.45 µM. To `Cc1nn(C)c(C)c1S(=O)(=O)N1CCC(Oc2ccc(Cl)cc2C(F)(F)F)CC1` [Example 39, 4-[4-Chloro-2-(trifluoromethyl)phenoxy]-1-(trimethyl-1H-pyrazole-4-sulfonyl)piperidine] belongs 0.21 µM; to `COCC(c1ccc(Cl)cc1)C1CCN(S(=O)(=O)c2c(C)n[nH]c2C)CC1` (centres unmarked) [Example 109, 4-(1-(4-Chlorophenyl)-2-methoxyethyl)-1-((3,5-dimethyl-1H-pyrazol-4-yl)sulfonyl)piperidine], 1.86 µM. For the molecule `CCc1nn(C)c(CC)c1S(=O)(=O)N1CCC(Oc2ccc(Cl)cc2Cl)CC1` [Example 28, 4-(2,4-Dichlorophenoxy)-1-[(3,5-diethyl-1-methyl-1H-pyrazol-4-yl)sulfonyl]piperidine], the IC50 stood at 0.32 µM. To `Cc1ccc(OC2CCN(S(=O)(=O)c3c(C)nn(C)c3Cl)CC2)cc1` [Example 11, 1-[(5-Chloro-1,3-dimethyl-1H-pyrazol-4-yl)sulfonyl]-4-(4-methylphenoxy)piperidine] belongs 0.86 µM; to `Cc1n[nH]c(C)c1S(=O)(=O)N1CCC(O)(Cc2ccc(Cl)c(Cl)c2)CC1` [Example 70, 4-(3,4-Dichlorobenzyl)-1-((3,5-dimethyl-1H-pyrazol-4-yl)sulfonyl)piperidin-4-ol], 8.62 µM. As for `Cc1n[nH]c(C)c1S(=O)(=O)N1CCC(C(c2ccc(Cl)cc2)C(F)F)CC1` (centres unmarked) [Example 111, 4-(1-(4-Chlorophenyl)-2,2-difluoroethyl)-1-((3,5-dimethyl-1H-pyrazol-4-yl)sulfonyl)piperidine], the figure is 0.34 µM; as for `Cc1nn(C)c(C)c1S(=O)(=O)N1CCC(Oc2ccc(Cl)cc2Cl)CC1` [Example 13, 4-(2,4-Dichlorophenoxy)-1-[(1,3,5-trimethyl-1H-pyrazol-4-yl)sulfonyl]piperidine], 0.79 µM. Turning to `COC(c1ccc(Cl)cc1)C1CCN(S(=O)(=O)c2c(C)n[nH]c2C)CC1` (single isomer, unassigned) [Example 97, 4-((4-Chlorophenyl)(methoxy)methyl)-1-((3,5-dimethyl-1H-pyrazol-4-yl)sulfonyl)piperidine], the IC50 was 4.62 µM. To `COc1cc(Cl)ccc1CC1(F)CCN(S(=O)(=O)c2c(C)n[nH]c2C)CC1` [Example 90, 4-(4-Chloro-2-methoxybenzyl)-1-((3,5-dimethyl-1H-pyrazol-4-yl)sulfonyl)-4-fluoropiperidine] belongs 0.17 µM; to `Cc1nn(C)c(C)c1S(=O)(=O)N1CCC(Cc2ccc(Cl)c(Cl)c2)CC1` [Example 56, 4-(3,4-Dichlorobenzyl)-1-((1,3,5-trimethyl-1H-pyrazol-4-yl)sulfonyl)piperidine], 0.95 µM; to `CCc1n[nH]c(CC)c1S(=O)(=O)N1CCC(Cc2ccc(Cl)cc2)CC1` [Example 66, 4-(4-Chlorobenzyl)-1-((3,5-diethyl-1H-pyrazol-4-yl)sulfonyl)piperidine], 1.01 µM. For the molecule `COc1cccc(OC2CCN(S(=O)(=O)c3c(C)nn(C)c3C)CC2)c1` [Example 17, 4-(3-Methoxyphenoxy)-1-[(1,3,5-trimethyl-1H-pyrazol-4-yl)sulfonyl]piperidine], the IC50 was 3.6 µM.

In the case of `Cc1ccc(OC2CCN(S(=O)(=O)c3c(C(F)(F)F)nn(C)c3C)CC2)cc1` [Example 10, 1-{[1,5-Dimethyl-3-(trifluoromethyl)-1H-pyrazol-4-yl]sulfonyl}-4-(4-methylphenoxy)piperidine], the IC50 was determined as 1.7 µM. To `Cc1nn(C)c(C)c1S(=O)(=O)N1CCC(Oc2ccc(Cl)c(F)c2)CC1` [Example 45, 4-(4-Chloro-3-fluorophenoxy)-1-(trimethyl-1H-pyrazole-4-sulfonyl)piperidine] belongs 1.4 µM. As to `Cc1nn(C)c(Cl)c1S(=O)(=O)N1CCC(Cc2ccc(Cl)cc2)CC1` [Example 68, 1-((5-Chloro-1,3-dimethyl-1H-pyrazol-4-yl)sulfonyl)-4-(4chlorobenzyl)piperidine], the IC50 turned out to be 2.02 µM.

Take `COC(c1ccccc1)C1CCN(S(=O)(=O)c2c(C)n[nH]c2C)CC1` (centres unmarked) [Example 110, 1-((3,5-Dimethyl-1H-pyrazol-4-yl)sulfonyl)-4-(methoxy(phenyl)methyl)piperidine]: the IC50 came to 3.01 µM. For the molecule `Cc1nn(C)c(Cl)c1S(=O)(=O)N1CCC(Oc2ccc(Cl)cc2)CC1` [Example 15, 1-[(5-Chloro-1,3-dimethyl-1H-pyrazol-4-yl)sulfonyl]-4-(4-chlorophenoxy)piperidine], the 50% inhibitory concentration (IC50) is 2.9 µM. As for `Cc1nn(C)c(C)c1S(=O)(=O)N1CCC(Oc2ncc(Cl)cc2F)CC1` [Example 77, 5-Chloro-3-fluoro-2-((1-((1,3,5-trimethyl-1H-pyrazol-4-yl)sulfonyl)piperidin-4-yl)oxy)pyridine], the figure is 3.19 µM; as for `Cc1n[nH]c(C)c1S(=O)(=O)N1CCC(Cc2ccc(Cl)c(F)c2)CC1` [Example 71, 4-(4-Chloro-3-fluorobenzyl)-1-((3,5-dimethyl-1H-pyrazol-4-yl)sulfonyl)piperidine], 0.78 µM.

With `Cc1cnn(C)c1S(=O)(=O)N1CCC(Oc2ccc(Cl)cc2Cl)CC1` [Example 36, 4-(2,4-Dichlorophenoxy)-1-(1,4-dimethyl-1H-pyrazole-5-sulfonyl)piperidine], the IC50 worked out at 1.1 µM. As for `Cc1n[nH]c(C)c1S(=O)(=O)N1CCC(Oc2ccc(Cl)cc2Cl)CC1` [Example 22, 4-(2,4-Dichlorophenoxy)-1-[(3,5-dimethyl-1H-pyrazol-4-yl)sulfonyl]piperidine], the figure is 1.18 µM. To `COc1c(F)cc(OC2CCN(S(=O)(=O)c3c(C)n[nH]c3C)CC2)cc1F` [Example 42, 4-(3,5-Difluoro-4-methoxyphenoxy)-1-(3,5-dimethyl-1H-pyrazole-4-sulfonyl)piperidine] belongs 5.9 µM; to `Cc1nn(C)c(C)c1S(=O)(=O)N1CCC(Oc2ccc3ccccc3c2)CC1` [Example 23, 4-(Naphthalen-2-yloxy)-1-[(1,3,5-trimethyl-1H-pyrazol-4-yl)sulfonyl]piperidine], 0.22 µM.

Take `COc1cc(Cl)ccc1OC1CCN(S(=O)(=O)c2c(C)n[nH]c2C)CC1` [Example 73, 4-(4-Chloro-2-methoxyphenoxy)-1-((3,5-dimethyl-1H-pyrazol-4-yl)sulfonyl)piperidine]: the IC50 came out at 0.2 µM. In the case of `Cc1n[nH]c(C)c1S(=O)(=O)N1CCC(Oc2ccccc2F)CC1` [Example 76, 1-((3,5-Dimethyl-1H-pyrazol-4-yl)sulfonyl)-4-(2-fluorophenoxy)piperidine], the IC50 came to 3.73 µM. To `COc1cc(Cl)ccc1CC1(O)CCN(S(=O)(=O)c2c(C)n[nH]c2C)CC1` [Example 89, 4-(4-Chloro-2-methoxybenzyl)-1-((3,5-dimethyl-1H-pyrazol-4-yl)sulfonyl)piperidin-4-ol] belongs 0.41 µM.
